These results are taken from publication PMC9258905, “Discovery of Quercetin and Its Analogs as Potent OXA-48 Beta-Lactamase Inhibitors” (Frontiers in Pharmacology, 2022).

Data set [1] concerns the target T1, OXA-48 (Klebsiella pneumoniae, UniProt Q6XEC0).
T1 construct: made in house; host or cells: E. coli BL21(DE3)
Nature of the data set: Enzyme inhibition assay against purified OXA-48 with nitrocefin as substrate. The settings on record: for percent inhibition against OXA-48 / inhibition at 50 µM: nitrocefin substrate; for percent inhibition against OXA-48: 50 µM. The format is biochemical. On the procedure: The inhibitory activity of compounds against the purified OXA-48 was tested on a BioTek HTS reader. The reactions were conducted in 0.1 M phosphate buffer (pH 7.0) supplemented with 50 mM NaHCO3 at 25°C with a final assay volume of 100 μL. The concentrations of enzyme and substrate were 12 nM and 200 μM, respectively. The initial reaction rates in the absence and presence of the compound were monitored at 495 nm in triplicate. The inhibitor concentration causing a 50% decrease in enzyme activity (IC50) was determined by plotting the percent inhibition against the log10 of the inhibitor concentration and fitting the data in a dose–response-inhibition model using GraphPad Prism 7.0.
Quercetin is a member of the flavonoid class with diverse structures obtained from nature, some of which have been used for the treatment of infectious diseases in traditional medical systems ([Farhadi et al., 2019]). To investigate whether quercetin and other flavonoids are OXA-48 inhibitors, the enzyme inhibition assays were conducted on a BioTek HTS reader using nitrocefin as a substrate. The concentrations of enzyme and substrate were 12 nM and 200 μM, respectively. The initial hydrolysis rate of nitrocefin was monitored at 495 nm. The percentage inhibition is defined as the enzyme activity in the absence of inhibitor (100%) minus the remaining activity in the presence of inhibitor.

The test system of the next data set is E.coli BW25113 (OXA-48). The data set is classed as cell-based. The method, then:
(§1) The recombinant plasmid containing the Pbla promoter and OXA-48 constructed above was then transformed into BW25113, BW25113 ∆acrA, BW25113 ∆bamB, and BW25113 ∆acrA∆bamB. The above strains were used to study the minimum inhibitory concentration (MIC). Antibiotic susceptibility tests were performed by the microdilution method following Clinical and Laboratory Standards Institute (CLSI) criteria ([CLSI, 2015]). Four E. coli strains expressing OXA-48 were used to assess the inhibitors. The susceptibility to piperacillin/imipenem combined with the compound at a concentration of 16 or 64 μg/mL was determined. […] Each measurement was conducted in triplicate. The fractional inhibitory concentration index (FICI) was determined according to the following formula: FICI = MIC (QT) in combination/MIC (QT) alone + MIC (PIP) in combination/MIC (PIP) alone. The drug interactions are defined as synergistic if the FICI is ≤0.5, indifferent if the FICI is >0.5 and ≤4.0, and antagonistic if the FICI is >4.0.
(§2) To investigate whether the compounds could restore the antimicrobial activity of β-lactam, the MICs of β-lactam antibiotics against resistant Gram-negative bacteria in the absence and presence of compounds (fisetin, 3′,4′,7-trihydroxyflavone, luteolin or quercetin) were determined by using published guidelines described by CLSI ([CLSI, 2015]). Specifically, we used OXA-48 producing strains E. coli BW25113, BW25113 ∆acrA, BW25113 ∆bamB, and BW25113 ∆acrA∆bamB as resistant Gram-negative bacteria. […] Imipenem, a carbapenem antibiotic, was applied at increasing concentrations ranging from 0.03 μg/mL to 4 μg/mL. The compounds were tested at 64 and 16 μg/mL.

The test system of data set [2] is E.coli BW25113 ∆acrA∆bamB (OXA-48). The format is cell-based. The conditions noted are these: for reduction in the piperacillin MIC: compound at 64 μg/mL. The method, then: as §1, §2
Data set [3] concerns E.coli BW25113 ∆acrA (OXA-48). The format is cell-based. On the procedure: as §1, §2
Data set [4] concerns E.coli BW25113 ∆bamB (OXA-48). The data set is classed as cell-based. On the procedure: as §1, §2
The subject of another data set is KPC-2. More on the design: method as in Papp-Wallace et al., 2010. The conditions noted are these: for KPC-2; ref Papp-Wallace et al., 2010; cited from earlier work.
Data set [5] has as its system E. coli BW25113 ∆acrA∆bamB (OXA-48). Nature of the data set: Mouse systemic infection model. The conditions noted are these: 10 mg/kg each, intravenous, 1 h post infection; organs 24 h post-infection; vs untreated group. The format is in vivo, Kunming mice.
Data set [6] deals with T1, OXA-48. Nature of the data set: Inhibition kinetics (Lineweaver-Burk plots) of OXA-48-catalyzed nitrocefin hydrolysis. The format is biochemical. The method, then: The inhibition mode of quercetin and the inhibition constant (K i) were determined using a Lineweaver–Burk plot by fitting the initial rate versus the substrate concentration at each inhibitor concentration using SigmaPlot 12.0. The nitrocefin concentrations were 25, 50, 75, and 100 μM, respectively. The initial velocity was determined by measuring the […] as described above. All reaction rates were determined in triplicate.
To determine the inhibition mode of the flavonoids, the inhibition kinetics of quercetin, fisetin and luteolin against OXA-48 in the presence of different concentrations of substrate were determined, and the inhibition modes were determined by generating Lineweaver-Burk plots.

Another data set deals with mice. The settings on record: ref Ardeshir et al., 2018; cited from earlier work.
Where [7] appears, read: read-out: percent inhibition against OXA-48, at 50 μM compound.
The mark [8] stands for this setting: purified OXA-48 12 nM, nitrocefin 200 μM, 0.1 M phosphate buffer pH 7.0, 50 mM NaHCO3, 25°C, read-out: IC50 against OXA-48.

Where two headings read alike, the source gives them in different places.

The term IC50 denotes the concentration that inhibits the measured activity by half. The term inhibition denotes how much of the control response was suppressed. The term Ki denotes the equilibrium dissociation constant of an inhibitor or competing ligand from its target. One may read the LD50 as the dose expected to kill half of the subjects tested.

T1 sequence (Q6XEC0 23-265 limits assumed): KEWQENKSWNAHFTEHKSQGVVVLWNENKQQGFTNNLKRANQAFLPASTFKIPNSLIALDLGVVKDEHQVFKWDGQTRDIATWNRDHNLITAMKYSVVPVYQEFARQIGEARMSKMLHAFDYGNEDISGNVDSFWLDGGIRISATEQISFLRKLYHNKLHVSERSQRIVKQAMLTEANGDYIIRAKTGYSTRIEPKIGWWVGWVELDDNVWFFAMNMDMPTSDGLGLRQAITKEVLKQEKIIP

Regarding `O=c1cc(-c2ccc(O)cc2)oc2cc(O)cc(O)c12` [Apigenin], on OXA-48 [1], the IC50 came to 3.64 ± 0.24 µM. Besides, the “percent inhibition against OXA-48” value at OXA-48 [1] (at 50 μM compound) was 77%; at OXA-48 [1] (at 50 μM compound, listed as apigenin) it was “more than 50%”.

Turning to `C[C@@H](O)[C@H]1C(=O)N2C(C(=O)O)=C(SCCN=CN)C[C@H]12` [Imipenem], the “Antibiotic MIC” value (in the data set on E.coli BW25113 (OXA-48) (inhibitor at 16 mg/L); in the data set on E.coli BW25113 (OXA-48) (inhibitor at 64 mg/L); in data set [2] (inhibitor at 16 mg/L); in data set [2] (inhibitor at 64 mg/L); in [3] (inhibitor at 16 mg/L); in data set [3] (inhibitor at 64 mg/L)) was 4 µg/mL throughout. The “Antibiotic MIC” value in [4] (inhibitor at 16 mg/L) and in [4] (inhibitor at 64 mg/L) was 4 µg/mL throughout.

As to `O=C1c2c(O)cc(O)cc2OC(c2ccc(O)c(O)c2)C1O` (centres unmarked) [Taxifolin], the half-inhibitory concentration (IC50) against OXA-48 [1] is 3.22 ± 0.23 µM. On OXA-48 [1] (at 50 μM compound), the “percent inhibition against OXA-48” value stood at 76%.

For the molecule `O=c1c(O)c(-c2ccccc2)oc2cc(O)cc(O)c12` [Galangin], on OXA-48 [1], the IC50 stood at 216 ± 15 µM. Also, the “percent inhibition against OXA-48” value on OXA-48 [1] (at 50 μM compound) is recorded as 3%; at OXA-48 [1] (at 50 μM compound, listed as galangin), “less than 20%”.

As to `O=c1c(O)c(-c2ccc(O)cc2)oc2cc(O)cc(O)c12` [Kaempferol], the IC50 against OXA-48 [1] turned out to be 4.54 ± 0.05 µM. Also, the “percent inhibition against OXA-48” value is on record as 76% at OXA-48 [1] (at 50 μM compound) and “more than 50%” at OXA-48 [1] (at 50 μM compound, listed as kaempferol).

In turn, `O=c1cc(-c2ccccc2)oc2cc(O)cc(O)c12` [Chrysin] yielded an IC50 against OXA-48 [1] of 108 ± 11 µM. Moreover, the “percent inhibition against OXA-48” value is 8% at OXA-48 [1] (at 50 μM compound) and “less than 20%” at OXA-48 [1] (at 50 μM compound, listed as chrysin).

`O=C(O)[C@H]1/C(=C/CO)O[C@@H]2CC(=O)N21` [clavulanic acid]: in the data set with KPC-2, the partition ratio is reported as 2,500.

With `COc1ccc(-c2cc(=O)c3c(O)cc(O[C@@H]4O[C@H](CO[C@@H]5O[C@@H](C)[C@H](O)[C@@H](O)[C@H]5O)[C@@H](O)[C@H](O)[C@H]4O)cc3o2)cc1O` [Diosmin], on OXA-48 [1] (at 50 μM compound), the “percent inhibition against OXA-48” value is listed as 11%. Further, the inhibition at 50 µM at OXA-48 [1] (setting [7]) is less than 20%.

Regarding `COc1ccc(-c2cc(=O)c3c(OC)c(OC)c(OC)c(OC)c3o2)cc1` [Tangeretin], the inhibition at 50 µM at OXA-48 [1] (setting [7]) stood at 7%.

`COc1ccc(-c2oc3c(CC=C(C)C)c(O[C@@H]4O[C@H](CO)[C@@H](O)[C@H](O)[C@H]4O)cc(O)c3c(=O)c2O[C@@H]2O[C@@H](C)[C@H](O)[C@@H](O)[C@H]2O)cc1` [Icariin]: the “percent inhibition against OXA-48” value at OXA-48 [1] (at 50 μM compound) is on record as 0.3%; at OXA-48 [1] (at 50 μM compound, listed as icarlin), “less than 20%”.

Consider `O=C(O)[C@H]1O[C@@H](Oc2cc3oc(-c4ccccc4)cc(=O)c3c(O)c2O)[C@H](O)[C@@H](O)[C@@H]1O` [Baicalin], for which, at OXA-48 [1] (setting [7]), the inhibition at 50 µM was 25%.

In the case of `CCN1CCN(C(=O)N[C@@H](C(=O)N[C@@H]2C(=O)N3[C@@H]2SC(C)(C)[C@@H]3C(=O)O)c2ccccc2)C(=O)C1=O` [Piperacillin], the “bacterial load in spleen and liver” value in data set [5] was “did not show a significant reduction of bacterial load”. The “Antibiotic MIC” value amounted to 4096 µg/mL in the data set on E.coli BW25113 (OXA-48) (inhibitor at 16 mg/L); 4096 µg/mL in the data set with E.coli BW25113 (OXA-48) (inhibitor at 64 mg/L); 512 µg/mL in [2] (inhibitor at 16 mg/L); 512 µg/mL in data set [2] (inhibitor at 64 mg/L); 4096 µg/mL in data set [3] (inhibitor at 16 mg/L); 4096 µg/mL in data set [3] (inhibitor at 64 mg/L). Besides, the “Antibiotic MIC” value in data set [4] (inhibitor at 16 mg/L) and in data set [4] (inhibitor at 64 mg/L) was 1024 µg/mL throughout. Further, the “increase in the piperacillin susceptibility” value in [2] (codeletion of bamB and acrA vs wild type) came to 8 fold; in data set [4] (deletion of bamB alone vs wild type) it was 4 fold.

Turning to `O=C1C[C@@H](c2ccc(O)cc2)Oc2cc(O)cc(O)c21` [Naringenin], at OXA-48 [1], the IC50 worked out at 68.1 ± 4.12 µM. In addition, the inhibition at 50 µM on OXA-48 [1] (at 50 μM compound, read-out: percent inhibition against OXA-48) came to 27%.

For the molecule `O=c1cc(-c2ccc(O)c(O)c2)oc2cc(O)cc(O)c12` [Luteolin], the inhibition mode entry against OXA-48 [6] (Lineweaver-Burk plots, Km unchanged, Vmax decreased) is “noncompetitively inhibited”. Also, on OXA-48 [6] (nitrocefin 25, 50, 75, 100 μM, Lineweaver-Burk), the Ki is 0.82 ± 0.05 µM. The LD50 in the data set with mice is listed as 150 mg/kg. Also, the “reduction in the piperacillin MIC” value in [2] is reported as 4 fold. Moreover, the “MIC decrease for imipenem” value in data set [2] (compound at a dose of 64 μg/mL) is on record as 2 fold. Further, the “percent inhibition against OXA-48” value is recorded as 81% on OXA-48 [1] (at 50 μM compound) and “more than 50%” at OXA-48 [1] (at 50 μM compound, listed as luteolin). Moreover, the IC50 on OXA-48 [1] (setting [8]) came to 0.55 ± 0.02 µM.

For `O=c1cc(-c2ccc(O)c(O)c2)oc2cc(O)ccc12` [3′,4′,7-trihydroxyflavone], the “reduction in the piperacillin MIC” value in data set [2] was determined as 8 fold. This molecule gave an IC50 against OXA-48 [1] of 1.89 ± 0.11 µM. The “percent inhibition against OXA-48” value is “more than 50%” at OXA-48 [1] (at 50 μM compound) and 80% at OXA-48 [1] (at 50 μM compound, listed as 3',4',7-trihydroxyflavone).

On to `C[C@@H]1O[C@@H](OC[C@H]2O[C@@H](Oc3c(-c4ccc(O)c(O)c4)oc4cc(O)cc(O)c4c3=O)[C@H](O)[C@@H](O)[C@@H]2O)[C@H](O)[C@H](O)[C@H]1O` [Rutin], for which, at OXA-48 [1] (at 50 μM compound), the “percent inhibition against OXA-48” value is on record as 9%. Further, at OXA-48 [1] (larger group at position 3), the “inhibitory activity against OXA-48 (in words)” value was “no inhibitory activity”.

Turning to `O=c1c(O[C@@H]2O[C@H](CO)[C@@H](O)[C@H](O)[C@H]2O)c(-c2ccc(O)c(O)c2)oc2cc(O)cc(O)c12` [Isoquercitrin], the “percent inhibition against OXA-48” value at OXA-48 [1] (at 50 μM compound) turned out to be 61%. Moreover, at OXA-48 [1] (setting [8]), the IC50 was determined as 11.5 ± 1.22 µM. Moreover, the inhibition at 50 µM at OXA-48 [1] (setting [7]) was more than 50%.
